Laboratory results: doi:10.1101/2020.03.08.982454v1 (biorxiv, 2020)

Columns and labels:
KMP-11 [1] = molecular target: KMP-11 (Leishmania donovani, UniProt Q36736, F62W); test: biochemical
KMP-11 [2] = molecular target: KMP-11 (Leishmania donovani, UniProt Q36736, Y5W); test: biochemical
KMP-11 [3] = molecular target: KMP-11 (Leishmania donovani, UniProt Q36736, Y89W); test: biochemical
KMP-11 [4] = molecular target: KMP-11 (Leishmania donovani, UniProt Q36736, Y48W); test: biochemical
KMP-11 [5] = molecular target: T1, KMP-11 (Leishmania donovani, UniProt Q36736); test: DiI C-18 fluorescence quenching, Hill fit; assay type: binding
T1 sequence (Q36736 1-92): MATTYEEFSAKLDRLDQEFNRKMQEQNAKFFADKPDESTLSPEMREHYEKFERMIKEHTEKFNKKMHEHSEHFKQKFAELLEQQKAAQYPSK

CCCCCCCCCCCCCCCC(=O)OC[C@H](COP(=O)([O-])OCC[N+](C)(C)C)OC(=O)CCCCCCCCCCCCCCC [DPPC]
Kd (KMP-11 [1]): 3800 nM
Kd (KMP-11 [2]): 19.4 nM
Kd (KMP-11 [3]): 161 nM
Kd (KMP-11 [4]): 118 nM
Kd (KMP-11 [5]): 286 nM
